# Values joined by “and” are separate entries in the source; they are usually repeats but may differ in a detail not shown here. Equal values may be shown once.
# How the values were obtained:
# [1] = tested on: A. fumigatus; test: MIC against moulds; format: cell-based; settings: 5 isolates
# [2] = tested on: A. flavus; test: MIC against moulds; format: cell-based; settings: 6 isolates
# [3] = tested on: A. niger; test: MIC against moulds; format: cell-based; settings: 6 isolates
# [4] = tested on: A. terreus; test: MIC against moulds; format: cell-based; settings: 6 isolates
# [5] = tested on: A. lentulus; test: MIC against moulds; format: cell-based; settings: 6 isolates
# [6] = tested on: A. tubingensis; test: MIC against moulds; format: cell-based; settings: 6 isolates
# [7] = tested on: Histoplasma capsulatum; test: microbe, parasite or virus in culture; format: cell-based
# [8] = tested on: Coccidioides posadasii; test: microbe, parasite or virus in culture; format: cell-based
# [9] = tested on: Fusarium oxysporum; test: MIC against moulds; format: cell-based; settings: 6 isolates
# [10] = tested on: Fusarium solani; test: MIC against moulds; format: cell-based; settings: 6 isolates
# [11] = tested on: P. variotii MYA-3630 (QC); test: MIC against moulds; format: cell-based; settings: 5 isolates
# [12] = tested on: Licht. Ramosa; test: MIC against moulds; format: cell-based; settings: 6 isolates
# [13] = tested on: Blastomyces dermatitidis; test: MIC against moulds; format: cell-based; settings: 5 isolates
# [14] = tested on: Apophysomyces sp.; test: MIC against moulds; format: cell-based; settings: 3 isolates
# [15] = tested on: Saksenaea sp.; test: MIC against moulds; format: cell-based; settings: 4 isolates
# [16] = tested on: Candida auris; test: MIC against yeasts; format: cell-based; settings: 10 isolates
# [17] = tested on: Candida parapsilosis; test: MIC against yeasts; format: cell-based; settings: 8 isolates
# [18] = tested on: Cryptococcus neoformans; test: MIC against yeasts; format: cell-based; settings: 10 isolates
# [19] = tested on: Cryptococcus gattii; test: MIC against yeasts; format: cell-based; settings: 10 isolates
# [20] = tested on: Rhodotorula sp.; test: MIC against yeasts; format: cell-based; settings: 6 isolates
# [21] = tested on: Different Yeasts; test: Average MIC against different yeasts; format: cell-based; set-up: MICavg yeast (46 strains): unit not given beside the values; settings: for MIC: 46 isolates
# [22] = tested on: Scedosporium aurantiacum; test: MIC against rare moulds resistant to AmB; format: cell-based; settings: 4 isolates
# [23] = target: T1, CYP1A2 (Homo sapiens, UniProt P05177); test: CYP Inhibition; format: in vitro ADME; settings: human liver microsome; for P450 1A2 % Inhibition: 10 um
# T1 construct: from tissue; host or cells: human liver microsomes
# T1 sequence (P05177 1-516): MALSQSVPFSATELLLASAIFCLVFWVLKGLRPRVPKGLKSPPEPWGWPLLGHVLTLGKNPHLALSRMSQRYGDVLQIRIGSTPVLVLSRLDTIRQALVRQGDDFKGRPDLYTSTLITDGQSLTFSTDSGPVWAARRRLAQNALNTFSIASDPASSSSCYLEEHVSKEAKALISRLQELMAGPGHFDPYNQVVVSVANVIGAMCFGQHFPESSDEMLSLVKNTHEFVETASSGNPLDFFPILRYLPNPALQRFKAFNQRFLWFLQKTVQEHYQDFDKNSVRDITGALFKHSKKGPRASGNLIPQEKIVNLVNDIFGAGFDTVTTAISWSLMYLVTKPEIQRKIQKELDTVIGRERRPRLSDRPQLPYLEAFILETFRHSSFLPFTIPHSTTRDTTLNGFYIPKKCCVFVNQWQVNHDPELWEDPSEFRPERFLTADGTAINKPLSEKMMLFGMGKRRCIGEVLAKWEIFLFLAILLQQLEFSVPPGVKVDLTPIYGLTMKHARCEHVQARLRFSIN
# Method: (§1) The working solutions of the test compounds and the standard inhibitors were prepared in DMSO (100× final concentration). 20 ul of substrate solution (5 in 1 cocktail) was added to the wells followed by 2 ul test compound solution was added. 158 ul of human liver microsome (HLM) was added to all the wells of the incubated plate and warmed to 37° C. for 10 mins. 20 ul of NADPH cofactor solution was then added to all the wells of incubated plate and incubated at 37° C. for 10 mins. At the time point the reaction was quenched by adding 400 uL of cold stop solution. The samples were centrifuged at 4000 rpm for 20 mins to precipitate protein. 100 ul supernatant was diluted with 100 ul of ultra pure water and analyzed using LCMS.
# [24] = target: CYP2C9 (Homo sapiens, UniProt P11712); test: CYP Inhibition; settings: for P450 2C9 % Inhibition: 10 um, human liver microsome
# Method: as §1
# [25] = target: CYP2D6 (Homo sapiens, UniProt P10635); test: CYP Inhibition; settings: for P450 2D6 % Inhibition: 10 um, human liver microsome
# Method: as §1
# [26] = target: CYP3A4 (Homo sapiens, UniProt P08684); test: CYP Inhibition; settings: for P450 3A4 % Inhibition: 10 um, human liver microsome
# Method: as §1
# [27] = target: T2, CYP2C19 (Homo sapiens, UniProt P33261); test: CYP Inhibition; format: in vitro ADME; settings: human liver microsome; for P450 2C19 % Inhibition: 10 um
# T2 construct: 158 ul of human liver microsome (HLM) was added to all the wells; from tissue; host or cells: human liver microsomes
# [28] = UV-Vis sterol binding assay
# Method: However, an alternative method was developed for reproducible formation of homogenous AmB and C2′epiAmB sterol sponge aggregates in vitro. Using these preparations, a quantitative UV-Vis and Principle Component (PCA) based assay for determining the apparent KDs for the binding of AmB and C2′epiAmB to ergosterol and cholesterol (FIGS. 5A-5D) was developed.
# UV-Vis Binding Assay (FIG. 21A): The protocol for the sterol binding assay (UV-Vis) was developed in our lab. Compounds were dissolved in DMSO at a final concentration of 1 mM. Sterol were first dissolved in CHCl3 (>200 mM) and then diluted to 1 mM concentration with DMSO. To synthesize the complex 1 ul of compound solution was taken in a clean eppendorf tube (2 ml) and sterol solution (volume depends on the stoichiometry) was added to it and the volume was made up to 20 ul with DMSO. 0.98 ml of PBS buffer was added to the Eppendorf tube and mixed properly. The absorbance of the solution was measured after 30 mins of incubation.
# [29] = tested on: yeast (5 strains); test: MICavg yeast (5 strains); format: cell-based; set-up: unit not given beside the values
# [30] = human, human liver microsomes, probe 5 in 1 substrate cocktail (substrates not named)
# Sequence of CYP3A4 (P08684 whole entry): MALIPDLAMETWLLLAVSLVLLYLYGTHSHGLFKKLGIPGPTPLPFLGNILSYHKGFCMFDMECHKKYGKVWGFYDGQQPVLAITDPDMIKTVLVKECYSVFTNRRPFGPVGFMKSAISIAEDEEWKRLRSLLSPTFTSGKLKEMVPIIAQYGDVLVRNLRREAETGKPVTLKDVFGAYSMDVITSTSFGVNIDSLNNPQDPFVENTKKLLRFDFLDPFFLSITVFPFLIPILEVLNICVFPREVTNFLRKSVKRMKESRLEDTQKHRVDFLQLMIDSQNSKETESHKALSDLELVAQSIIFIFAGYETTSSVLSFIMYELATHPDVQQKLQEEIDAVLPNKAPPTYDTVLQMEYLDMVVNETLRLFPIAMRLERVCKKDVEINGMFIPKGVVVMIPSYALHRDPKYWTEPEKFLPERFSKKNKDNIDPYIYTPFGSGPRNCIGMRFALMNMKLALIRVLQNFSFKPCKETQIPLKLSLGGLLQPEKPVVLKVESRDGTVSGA
# Sequence of CYP2C9 (P11712 whole entry): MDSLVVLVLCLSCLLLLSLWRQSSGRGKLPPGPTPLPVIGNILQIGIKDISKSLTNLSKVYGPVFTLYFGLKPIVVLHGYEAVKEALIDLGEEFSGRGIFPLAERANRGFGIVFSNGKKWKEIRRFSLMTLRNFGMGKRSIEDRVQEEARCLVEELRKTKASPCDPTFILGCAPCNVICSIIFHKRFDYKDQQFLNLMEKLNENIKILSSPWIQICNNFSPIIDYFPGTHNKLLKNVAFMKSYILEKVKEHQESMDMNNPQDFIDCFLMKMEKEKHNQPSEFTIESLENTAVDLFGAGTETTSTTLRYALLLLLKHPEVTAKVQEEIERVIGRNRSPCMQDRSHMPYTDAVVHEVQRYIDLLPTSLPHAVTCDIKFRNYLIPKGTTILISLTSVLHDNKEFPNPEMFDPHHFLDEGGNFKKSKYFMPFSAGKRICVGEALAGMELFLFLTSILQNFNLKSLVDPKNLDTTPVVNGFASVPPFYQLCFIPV
# Sequence of CYP2D6 (P10635 whole entry): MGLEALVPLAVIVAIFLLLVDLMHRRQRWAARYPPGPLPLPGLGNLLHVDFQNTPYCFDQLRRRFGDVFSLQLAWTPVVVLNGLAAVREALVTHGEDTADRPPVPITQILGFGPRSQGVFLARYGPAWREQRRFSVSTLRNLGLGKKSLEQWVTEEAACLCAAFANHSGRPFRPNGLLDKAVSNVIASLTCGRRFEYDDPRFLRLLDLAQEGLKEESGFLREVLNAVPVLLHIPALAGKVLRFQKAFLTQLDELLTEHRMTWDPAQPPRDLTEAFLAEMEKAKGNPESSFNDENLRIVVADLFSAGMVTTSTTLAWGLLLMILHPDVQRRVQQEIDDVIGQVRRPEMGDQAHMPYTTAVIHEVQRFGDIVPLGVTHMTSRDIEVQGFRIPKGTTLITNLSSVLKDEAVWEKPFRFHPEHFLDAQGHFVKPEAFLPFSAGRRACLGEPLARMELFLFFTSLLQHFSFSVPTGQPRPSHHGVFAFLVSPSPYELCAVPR
# T2 sequence (P33261 whole entry): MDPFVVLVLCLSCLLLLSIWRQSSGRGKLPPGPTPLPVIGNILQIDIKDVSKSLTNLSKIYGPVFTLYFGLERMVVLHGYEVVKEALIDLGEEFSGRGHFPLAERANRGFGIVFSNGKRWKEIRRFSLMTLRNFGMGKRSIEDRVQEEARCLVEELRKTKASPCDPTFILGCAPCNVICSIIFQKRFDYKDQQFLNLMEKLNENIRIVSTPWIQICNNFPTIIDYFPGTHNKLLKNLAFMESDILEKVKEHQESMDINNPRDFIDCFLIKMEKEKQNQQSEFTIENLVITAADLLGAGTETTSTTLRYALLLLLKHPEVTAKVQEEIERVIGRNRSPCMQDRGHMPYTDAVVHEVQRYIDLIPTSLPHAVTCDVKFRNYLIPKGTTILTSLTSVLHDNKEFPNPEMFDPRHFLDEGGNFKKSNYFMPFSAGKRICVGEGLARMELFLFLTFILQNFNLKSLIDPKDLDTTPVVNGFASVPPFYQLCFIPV
smiles,measurement,setting,value
"C[C@@H]1[C@H](O)[C@@H](C)/C=C/C=C/C=C/C=C/C=C/C=C/C=C/[C@H](OC2O[C@H](C)[C@@H](O)[C@H](N)[C@@H]2O)C[C@@H]2O[C@](O)(C[C@@H](O)C[C@@H](O)[C@H](O)CC[C@@H](O)C[C@@H](O)CC(=O)O[C@H]1C)C[C@H](O)[C@H]2C(=O)O (some centres unmarked) [AmB, Amphotericin B]",MIC,[1]; Aspergillus fumigatus,0.71 µM
same,MIC,[2]; Aspergillus flavus,1.16 µM
same,MIC,[3]; Aspergillus niger,0.21 µM
same,MIC,[4]; Aspergillus terreus,3 µM
same,MIC,[5]; Aspergillus lentulus,3.75 µM
same,MIC,[6]; Aspergillus tubingensis,0.125 µM
same,MIC,"[7]; Histoplasma capsulatum, read-out: MIC Histoplasma capsulatum",0.06 µM
same,MIC,"[8]; Coccidioides posadasii, read-out: MIC Coccidioides posadasii",0.06 µM
same,MIC,[9]; Fusarium oxysporum,1.5 µM
same,MIC,[10]; Fusarium solani,1.33 µM
same,MIC,[11]; Paecilomyces variotii,1 µM
same,MIC,[12],0.15 µM
same,MIC,[13]; Blastomyces dermatitidis,< 0.03 µM
same,MIC,[14],0.75 µM
same,MIC,[15],0.06 µM
same,MIC,[16]; Candidozyma auris,1.2 µM
same,MIC,[17]; Lodderomyces parapsilosis,1.1 µM
same,MIC,[18]; Cryptococcus neoformans,0.55 µM
same,MIC,[19]; Cryptococcus gattii,0.75 µM
same,MIC,[20]; Rhodotorula,1 µM
same,MICavg yeast (46 strains),[21],0.9
same,MIC,[21],0.9 µM
same,MIC,[22]; Scedosporium aurantiacum,> 16 µM
same,"inhibition at 10 min, 10 µM","[23]; human liver microsomes, probe 5 in 1 substrate cocktail, read-out: P450 1A2 % Inhibition",23.1%
same,"inhibition at 10 min, 10 µM","[24]; human, human liver microsomes, probe 5 in 1 substrate cocktail",4.1%
same,"inhibition at 10 min, 10 µM",[25]; [30],2.3%
same,"inhibition at 10 min, 10 µM",[26]; [30],8.1%
same,"inhibition at 10 min, 10 µM","[27]; human liver microsomes, probe 5 in 1 substrate cocktail (substrates not named), read-out: P450 2C19 % Inhibition",7.3%
same,Binds Cholesterol,[28],Yes
same,Cholesterol Binding,[28],Yes
same,MICavg yeast (5 strains),[29],0.23
CC1C=CC=CC=CC=CC=CC=CC=CC(OC2OC(C)C(O)C(N)C2O)CC2OC(O)(CC(O)CC(O)C(O)CCC(O)CC(O)CC(=O)OC(C)C(C)C1O)CC(O)C2C(=O)NCCO (centres unmarked) [Compound BA],MIC,[1],2 µM
same,MIC,[2],2.67 µM
same,MIC,[3],0.58 µM
same,MIC,[4],3.33 µM
same,MIC,[5],3 µM
same,MIC,[6],0.92 µM
same,MIC Histoplasma capsulatum,[7],0.06 µM
same,MIC Coccidioides posadasii,[8],0.46 µM
same,MIC,[9],11.3 µM
same,MIC,[10],8.67 µM
same,MIC,[11],2.7 µM
same,MIC,[12],1.1 µM
same,MIC,[13],0.6 µM
same,MIC,[14],16 µM
same,MIC,[15],0.34 µM
same,MIC,[16],2.8 µM
same,MIC,[17],2.5 µM
same,MIC,[18],2 µM
same,MIC,[19],2 µM
same,MIC,[20],3.3 µM
same,MICavg yeast (46 strains),[21],2.5
same,MIC,[21],2.5 µM
same,MIC,[22],>16 µM
same,P450 1A2 % Inhibition,[23],0.0%
same,P450 2C9 % Inhibition,[24],18.7%
same,P450 2D6 % Inhibition,[25],2.74% and 2.77%
same,P450 3A4 % Inhibition,[26],15.7%
same,P450 2C19 % Inhibition,[27],26.0%
same,Binds Cholesterol,[28],No
same,Cholesterol Binding,[28],No
same,MICavg yeast (5 strains),[29],0.59
CC1C=CC=CC=CC=CC=CC=CC=CC(OC2OC(C)C(O)C(N)C2O)CC2OC(O)(CC(O)CC(O)C(O)CCC(O)CC(O)CC(=O)OC(C)C(C)C1O)CC(O)C2C(=O)NCCF (centres unmarked) [Compound BM],MIC,[1],1.83 µM
same,MIC,[2],2.5 µM
same,MIC,[3],3 µM
same,MIC,[4],1.08 µM
same,MIC,[5],2.83 µM
same,MIC,[6],0.92 µM
same,MIC Histoplasma capsulatum,[7],0.06 µM
same,MIC Coccidioides posadasii,[8],0.42 µM
same,MIC,[9],9.3 µM
same,MIC,[10],8.8 µM
same,MIC,[11],2.67 µM
same,MIC,[12],1 µM
same,MIC,[13],0.5 µM
same,MIC,[14],8.3 µM
same,MIC,[15],0.34 µM
same,MIC,[16],2.4 µM
same,MIC,[17],2.4 µM
same,MIC,[18],2 µM
same,MIC,[19],2 µM
same,MIC,[20],3.3 µM
same,MICavg yeast (46 strains),[21],2.3
same,MIC,[21],2.3 µM
same,MIC,[22],>16 µM
same,P450 1A2 % Inhibition,[23],7.8%
same,P450 2C9 % Inhibition,[24],89.1%
same,P450 2D6 % Inhibition,[25],2.1%
same,P450 3A4 % Inhibition,[26],12.4%
same,P450 2C19 % Inhibition,[27],19.7%
same,Binds Cholesterol,[28],No
same,MICavg yeast (5 strains),[29],0.58

# Source: patent US20230016424A1, “HYBRID AMIDE DERIVATIVES OF AMPHOTERICIN B” (The Board of Trustees of the University of Illinois, priority 2019, published 2023)
